The test system of one data set is platelet (PLT). In words: Population PK/PD platelet model parameter estimates (NLME, Monolix) from CHDM201X2101 dataset. Conditions: population estimate. It counts as in vivo, human. An excerpt: Based on the population PK/PD data of the clinical study CHDM201X2101, an AML patients platelet model was developed which recognizes that the disease influences the regulation of platelets production. The following graphic elucidates the model.
(§1) For model building the PK/PD dataset of CHDM201X2101 were used and an NLME estimation (Monolix 4.3.2) performed. The model structure and the parameter estimates are provided below. This provided inputs for R/shiny. The mlxR package were used for simulation of longitudinal data from the MLXTRAN model.
EP1=kr1*E^h/(E^h+EC50^h)+kr1D*Cc

A further data set relates to Colon 26 cells. In words: Colon 26 Colorectal Cancer (CRC) syngeneic mouse model. It counts as in vivo. The procedure:
Balb/c mice were implanted with 2×10^5 Colon 26 cells subcutaneously. Mice were treated with HDM201 at 40 mg/kg×3 every 3 h po on Days 10, 17 and 24 post cell implant, and anti-Tim3 antibody (murine cross reactive clone 5D12) at 5 mg/kg ip on days 10, 13, 17, and 20. End-point was defined as tumor volume equal or greater than 1000 mm^3.
The anti-tumor effects of HDM201 as a monotherapy or in combination with an anti-TIM3 antibody were evaluated in the Colon 26 Colorectal Cancer (CRC) syngeneic mouse model.

Data set [1] is described as follows: Population PK model parameter estimates (NLME, Monolix) from CHDM201X2101 dataset. It is filed as in vivo, human. Conditions: population estimate.
Excerpt: as §1
parameter={r, t1, t2, Tk0, ka, V, Cl, PLTz, MMTP, T12P, sPW, alp, lPW, kr1, kr1D, EC50, ke0, cfr, h, Sg, HGD, koutg, gdfZ, kinG}

A further data set concerns hematological tumors. In words: Clinical study CHDM201X2101, HDM201 single agent. It counts as in vivo, human. The procedure: With this regimen, the RD has been determined as 45 mg HDM201 in hematological tumors in the CHDM201X2101 study. […] Proceedings of the American Association for Cancer Research Annual Meeting 2017; 2017 Apr. 1-5; Washington, D.C. Philadelphia (Pa.): AACR; Cancer Res 2017; 77 (13 Suppl): Abstract nr CT154. doi:10.1158/1538-7445.AM2017-CT154).
The starting dose and regimen selection for HDM201 in dose escalation is based on the previous Phase I dose escalation and expansion study of HDM201 as a single-agent in subjects with AML/MDS (CHDM201X2101) in which a dose of 45 mg/day (day 1-7/28-day cycle) was determined to be the RD. In this study, a starting dose and regimen of 20 mg/day HDM201 (day 1-5/28-day cycle) for dose escalation has been selected. The selection of dose and regimen was supported by single agent translational preclinical modeling of tumor bearing rats and population PK/PD modeling of thrombocytopenia and bone marrow blast data from CHDM201X2101 study in AML/MDS subjects. The starting dose corresponds to ˜[…] below the cumulative dose of HDM201 single agent RD (as evaluated in CHDM201X2101 at 45 mg/day (day 1-7/28-day cycle), or 315 mg/cycle). At this dose level, ˜15% of subjects are predicted to achieve preclinical derived average target efficacious concentrations of HDM201 per cycle, with some anticipated clinical activity (bone marrow blast reduction) and limited target myelosuppression.

Data set [2] can be described thus: Clinical study CMBG453X2101, MBG453 single agent in solid tumor subjects. It is filed as in vivo, human. As to conditions: Q4W, based on PK and PKPD modeling of TIM-3 occupancy. On the procedure: (§2) The MBG453 single agent RD has been determined as 800 mg Q4W in solid tumor subjects primarily based on PK and PKPD modeling of target (TIM-3) occupancy. MBG453 at the dose level of 800 mg Q4W was predicted to give sustained target occupancy of 90% in tumor in >90% of subjects. […] MBG453 single agent is also being evaluated in AML/MDS subjects in the CPDR001X2105 study with Q4W and Q2W regimens.

A short description of data set [3]: Clinical study CPDR001X2105, MBG453 in AML/MDS subjects. Conditions: 400 mg Q2W and 800 mg Q4W. It is filed as in vivo, human. On the procedure: as §2
The RD in AML/MDS has not yet been determined, however it is not expected to be different from solid tumors, based on preliminary PK and safety data.

Where [4] appears, read: Balb/c mice, Colon 26 sc, HDM201 40 mg/kg x3 every 3 h po days 10, 17, 24, anti-Tim3 antibody 5 mg/kg ip days 10, 13, 17, 20.
Where [5] appears, read: learning from clinical study CHDM201X2101.

The text below walks through data of patent publication US20220281970A1, “Pharmaceutical Combinations” (Novartis AG, priority 2018, published 2022).

In brackets after ≈: the same amount, converted by molar mass.

In the case of `COc1ncc(-c2nc3c(n2C(C)C)[C@H](c2ccc(Cl)cc2)N(c2cc(Cl)cn(C)c2=O)C3=O)c(OC)n1` [HDM201, (S)-5-(5-Chloro-1-methyl-2-oxo-1,2-dihydro-pyridin-3-yl)-6-(4-chloro-phenyl)-2-(2,4-dimethoxy-pyrimidin-5-yl)-1-isopropyl-5,6-dihydro-1H-pyrrolo[3,4-d]imidazol-4-one], the EC50 in the data set with platelet (PLT) (Homo sapiens, drug effect EP1 on platelet production, read-out: pop_EC50) was 0.261 µg/mL (≈ 0.469 µM). Moreover, the pop_h in the data set on platelet (PLT) (method=FIXED, exponent h in EP1) was 2. Also, the pop_kr1D with platelet (PLT) (concentration-proportional term of EP1) is 0.006491. Besides, the pop_ke0 in the data set on platelet (PLT) (effect compartment) was 6.152e-05. In addition, in the data set with platelet (PLT) (maximal term of drug effect EP1), the pop_kr1 is reported as 2.1374. Also, in the data set on Colon 26 cells (setting [4]), the “anti-tumor effects (tumor growth)” value is “inhibited tumor growth” and the “complete tumor regressions (CR)” value came to 1 CR. Further, in the data set on Colon 26 cells (mice with CR or long-term survival, Colon 26 cells), the “anti-tumor immune memory / resistance to re-challenge” value was “develop antitumor immunity and are resistant to re-challenge with the same tumor cells”. Further, the pop_Tk0 in data set [1] is recorded as 1.314. In data set [1] (method=FIXED), the pop_Cl was 6.18, the pop_V was 119 and the pop_ka is on record as 0.489. Besides, the pop_t1 in data set [1] (method=FIXED, absorption lag (Tlag=t1)) is recorded as 0.69. In addition, the pop_t2 in data set [1] (method=FIXED, absorption lag (Tlag=t2)) is 0.412. The pop_r in data set [1] (method=FIXED, fraction for zero-order absorption) is on record as 0.617. The “RD (recommended dose)” value in the data set on hematological tumors (day 1-7/28-day cycle, single-agent, subjects with AML/MDS) came to 45 mg/day. In the data set with hematological tumors (setting [5]), the “hematopoietic recovery on dosing in AML” value is recorded as “Delayed hematopoietic recovery” and the “platelet toxicity on dosing in AML” value is listed as “Cumulative platelet toxicity”. The “RD (recommended dose)” value with hematological tumors (once daily day 1 to day 7 of a 28-day cycle, hematological tumors) is listed as 45 mg.
Consider “MBG453: high-affinity, humanized anti-TIM-3 IgG4 monoclonal antibody which blocks the binding of TIM-3 to phosphatidylserin (PtdSer)”, for which the “single agent RD (recommended dose)” value in data set [2] is given as 800 mg. The “tolerability in AML/MDS” value in data set [3] is “well tolerated”.
